For test [1], the system named is Meloidogyne incognita nematodes. The test can be described thus: Pot Assay 1: Meloidogyne infection of potato, egg masses/galls on roots. The conditions noted are these: potato in pot, week 8 after inoculation. Format: in vivo. In outline:
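Potato (cv. Bintje) grown in sand pots at 14–18 °C in greenhouse. Compound in DMSO spread on sand one day before inoculation with ~1500 M. incognita juveniles; concentration assumes full diffusion in pot. Root galls counted 8 weeks post-inoculation, plant development also scored; triplicates, aldicarb and DMSO/untreated controls.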

The next test has as its system Meloidogyne nematodes. As to the kind of experiment: Pot Assay 2: Meloidogyne infection of tomato, % infestation of roots. Format: in vivo. The conditions noted are these: RATE 0.05 mg; tomato in infested soil. As for the experimental part: The soil used in this assay originated from a plot, heavily infested with Meloidogyne nematodes. Part of this soil was sterilized by autoclaving and was used as negative control. Sandy soil, which was not infested with nematodes, was pursued from a commercial source.
Plastic seedling trays with wells of 60 ml capacity were filled with about 40 ml of soil per well. 5 ml of water per well was used for irrigation.
Compounds as described herein were tested in 4 different rates and with 12 replicates for each concentration. The compounds as described herein were stored as dry films of 4 different concentrations. The day of the application of the compounds, all the dry films were dissolved in 60 ml water and poured into the 12 replicate wells: 5 ml per well. Every tray of 12 wells was identified with a label, indicating compound and concentration used. The 4 final rates in the soil of the tested compound were approximately 0.05 mg, 0.20 mg, 1 mg and 5 mg. These amounts translate to field application rates respectively as 30, 120, 600 and 3000 g per hectare.
3-5 days after application of the tested compound, tomato seeds (cv. Rio Grande) were sown in the wells by hand, at about 2 cm deep. A light cover of vermiculite on the surface was used to avoid dehydration. Plants were irrigated by micro-nebulization 3-4 times per week at a rate of 3 L/m^2, weeded by hand and treated with fertilizers, fungicide and insecticides when needed.
Their resistance against nematode infection was monitored and the efficacy of compounds described herein as a nematicide was measured. Furthermore the phytotoxicity of the test compounds was evaluated.
Efficacy of the compounds described herein as nematicide was measured by giving the roots a percentage of infestation measured as follows. Plants were grown to reach good development of the roots, which corresponds to plants grown to about 10 cm high at about one month after emergence. After removal of the soil from the roots by rinsing with water, the roots were visually inspected and root galls were counted on 4 plants of the set of 12 replicate plants.
Positive control plants were treated with a 10 micromolar concentration of oxamyl (Vydate, 10% SL; the rate of 10 micromolar corresponds to a commercial rate of 20 l/ha), a known nematicide. Negative controls involved double negative controls (no compound, sterile soil), and single negative controls (no compound, with nematode infested soil).

In the case of `CCCCc1c(C)nc(NCC)nc1OS(=O)(=O)N(C)C` [XLIII], the “number of egg masses (galls) on roots, Replicate 3” value is reported as 30 in test [1] (0.5 μM), 25 in test [1] (2 μM), 10 in test [1] (10 μM) and 5 in test [1] (50 μM). The “number of egg masses (galls) on roots, Replicate 2” value was 35 in test [1] (2 μM), 5 in test [1] (10 μM) and 15 in test [1] (50 μM). The “number of egg masses (galls) on roots, Replicate 1” value in test [1] (10 μM) came out at 15; in test [1] (50 μM) it was 0. In addition, in the test on Meloidogyne nematodes, the “% INF. (% Infestation)” value is reported as 1.3%.

(Values after patent US20090209605A1, “NEMATICIDAL COMPOSITIONS” (Devgen N.V., priority 2004, published 2009).)
